{"source": "paper PMC10321287", "about": "“β-amyloid binds to microglia Dectin-1 to induce inflammatory response in the pathogenesis of Alzheimer's disease” (International Journal of Biological Sciences, 2023)", "key": {"Dectin-1 [1]": {"tested_on": "Dectin-1", "assay": "Co-IP of APP/β-amyloid and Dectin-1 in brain lysates", "format": "binding, mice", "details": "lysates from WT and Aβ42 brain tissues, Protein A magnetic beads", "protocol": "The triggering receptor expressed on myeloid cells 2 (Trem2) is a microglial surface receptor genetically linked to the risk of AD [28]. Most Aβ functions in microglia are thought to be mediated by its binding to Trem2 [29]. […] Trem2 is the currently reported microglia receptor that can directly bind to Aβ, and we used it as a positive control in this experiment. […] Next, we performed a protein interaction analysis using Co-IP. APP/β-amyloid was added to Protein A magnetic beads as a bait protein, and lysates from WT and Aβ42 brain tissues were added. […] In turn, we could also capture the expression of APP/β-amyloid protein using Dectin-1 as a bait protein (Figure 6C). […] Therefore, we used surface plasmon resonance (SPR) to identify direct Aβ42-Dectin-1 interactions at the molecular level. […] Nuclei are counterstained with DAPI (blue) [scale bar = 5 μm]. (B) Bio-Aβ42 is added to streptavidin-agarose beads and incubated. Biotin alone was used as control. Lysates prepared from BV2 cells were added to beads. The eluent was loaded onto a polyacrylamide gel for western blot analysis. Total lysates were used as input controls. Trem2 was used as a positive control. (C) The Dectin-1-APP/ β-amyloid interaction is analyzed by co-immunoprecipitation in the brains of WT and model mice. […] Mean KD constant derived from five separate experiments. (E) 3D binding model of dectin-1 and amyloid beta peptide. […]"}, "Syk": {"tested_on": "Syk", "assay": "Syk phosphorylation in BV2 cells (western blot)", "format": "cell-based", "details": "20 µM Bio-Aβ42, 45 min", "description": "(§1) GAPDH was used as loading control. […] GAPDH was used as loading control. […] GAPDH was used as loading control. […] GAPDH was used as loading control."}, "Dectin-1 [2]": {"tested_on": "Dectin-1", "assay": "Pull-down with Bio-Aβ42 from BV2 lysates", "format": "binding", "details": "100 µL of 20 μM biotinylated Aβ42 on streptavidin-agarose beads, lysate 24 h at 4°C; biotin control; Trem2 positive control", "protocol": "Lysates prepared from microglia cells and mouse brain tissues were then added to the streptavidin-agarose beads with biotinylated- Aβ42. The mixture was incubated for 24h at 4°C under gentle rocking. Samples were then spun and washed 3 times. Then, 5x loading buffer was added in the elution buffer and boiled for 10min, and the samples were used for western blot analysis. Total lysates were used as an input control.\nNuclei are counterstained with DAPI (blue) [scale bar = 5 μm]. (B) Bio-Aβ42 is added to streptavidin-agarose beads and incubated. Biotin alone was used as control. Lysates prepared from BV2 cells were added to beads. The eluent was loaded onto a polyacrylamide gel for western blot analysis. Total lysates were used as input controls. Trem2 was used as a positive control. (C) The Dectin-1-APP/ β-amyloid interaction is analyzed by co-immunoprecipitation in the brains of WT and model mice. […] Mean KD constant derived from five separate experiments. (E) 3D binding model of dectin-1 and amyloid beta peptide. The backbones of dectin-1 and amyloid beta peptide are shown as cartoons. The residues in dectin-1 are shown as cyan sticks, whereas the residues in amyloid beta-peptide are shown as wheat sticks. The hydrogen bonds are depicted as red dashed lines and the salt bridges are depicted as blue dashed lines."}, "BV2 cells": {"tested_on": "BV2 cells", "assay": "Microglia phagocytosis and clearance of FITC-Aβ42 (flow cytometry)", "format": "cell-based", "details": "20 μM FITC-Aβ42, 2 h (phagocytosis) then 24 h in FITC-Aβ-free medium (clearance), Dectin-1-deficient BV2 cells", "experimental": "After incubation, the medium containing FITC-Aβ was removed, and the cells were washed three times with 1xPBS. BV2 cells were collected by centrifugation at 3000rpm for 5min, and resuspended in ice-cold 1xPBS solution. […] Cells were cultured in the FITC-Aβ-free medium for another 24 hours. Collect the cells and detect the level of intracellular Aβ by flow cytometry."}, "TNF-α and IL-1β": {"tested_on": "TNF-α and IL-1β", "assay": "TNF-α and IL-1β release from BV2 cells (ELISA)", "format": "cell-based", "details": "Aβ42-stimulated BV2 cells, cell supernatant", "protocol": "After behavior test, blood samples from each group of mice were collected. Serum was obtained by centrifuge at 12000 rpm for 10 min and the levels of TNF-α and IL-1β were measured using ELISA kits. Briefly, samples were added to the wells with a biotin-conjugated antibody specific to TNF-α or IL-1β. Then, Avidin conjugated to Horseradish Peroxidase (HRP) was added to each microplate well and incubated. […] Finally, stop solution was added to stop the reaction and the color change were measured at a wavelength of 450 nm by a microplate reader. The concentration of TNF-α or IL-1β in the samples were then determined by comparing the OD value of the samples to the standard curve.\n(§2) Figure 5 Dectin-1 interference prevents Aβ42-induced inflammatory response in BV2 cells. (A) Time-course of Dectin-1-Syk interaction. […] (B) HEK-293T cells were transfected with Flag-tagged Dectin-1 (Flag-D1) and HA-tagged Dectin-1 (HA-D1). […] (C) Time-course of Syk phosphorylation. […] Total proteins were extracted and probed for p-Syk and Syk levels. GAPDH was used as loading control. (D) Dose-course of Syk phosphorylation. […] Total proteins were used to measure p-Syk and Syk levels. GAPDH was used as loading control. (E) Determination of Dectin-1 interference efficiency in BV2 cells. […] (H) TNFα release in cell supernatant measured by ELISA. (I) IL-1β release in in cell supernatant measured by ELISA. […]"}, "[3]": {"tested_on": "Tnfa, Il1b, IL-6, Cox2, and Inos", "assay": "mRNA levels of inflammatory genes (real-time qPCR)", "format": "cell-based", "details": "Aβ42-stimulated, normalized to GAPDH", "protocol": "Total RNA was isolated from cultured BV2 cells and brain tissues using TRIzol reagent (Thermo Fisher, 15596026) by standard techniques. Total RNA concentration was measured by a spectrophotometer. Then, PrimeScript RT-reagent Kit (Takara, RR037A) was used for cDNA synthesis. Real-time PCR amplification reactions were carried out on CFX96 Touch Real-Time PCR Detection System (Bio-Rad) using TB Green Premix Ex Taq II (Takara; RR820A). Quantification of the mRNA expression was calculated by […] method with GAPDH normalization. Primer sequences used in this study were presented in Supplementary Table S2.\nFigure 5 Dectin-1 interference prevents Aβ42-induced inflammatory response in BV2 cells. (A) Time-course of Dectin-1-Syk interaction. […] (B) HEK-293T cells were transfected with Flag-tagged Dectin-1 (Flag-D1) and HA-tagged Dectin-1 (HA-D1). […] (C) Time-course of Syk phosphorylation. […] Total proteins were extracted and probed for p-Syk and Syk levels. GAPDH was used as loading control. (D) Dose-course of Syk phosphorylation. […] Total proteins were used to measure p-Syk and Syk levels. GAPDH was used as loading control. (E) Determination of Dectin-1 interference efficiency in BV2 cells. Total proteins were extracted and probed for p-Syk and Syk levels. […] (H) TNFα release in cell supernatant measured by ELISA. (I) IL-1β release in in cell supernatant measured by ELISA. […]"}, "Syk/NF-κB": {"tested_on": "Syk/NF-κB", "assay": "Syk/NF-κB activation in BV2 cells (western blot)", "format": "cell-based", "details": "Aβ42-stimulated BV2 cells, siRNA targeting Dectin-1", "description": "as §1"}, "PC12 cells": {"tested_on": "PC12 cells", "assay": "PC12 damage by BV2-conditioned medium", "format": "cell-based", "details": "medium of Dectin-1-deficient BV2 cells exposed to Aβ42, PC12 treated 24 h", "experimental": "To test cellular apoptosis, TUNEL assay was performed (C1098, Beyotime, Shanghai, China). For cells: Properly treated BV2 cells were fixed with 4% PFA for 20 min and washed with PBST for 3 times. Then cells were incubated with TUNEL test solution (5 μl of TdT enzyme and 45 μl of fluorescent labeling solution) under dark condition for 1h. After washing with 1xPBS for three times, nuclei were stained with DAPI. The apoptotic cells (green fluorescence) were observed under fluorescent microscopy and calculated as a percentage of the total number of cells. For brain tissue: Processed tissue samples were incubated with 50 μl of TUNEL reaction mixture for 1h at 37℃ under dark conditions. Color developed in DAB coloring solution. Apoptosis index (brown color) in the hippocampus area were measured using this formula: apoptosis index (%) = (apoptotic neurons / total neurons) × 100%."}, "NF-κB p65": {"tested_on": "NF-κB p65", "assay": "p65 nuclear translocation in BV2 cells (immunofluorescence)", "format": "cell-based", "details": "Aβ42-stimulated BV2 cells, siRNA targeting Dectin-1", "protocol": "Properly treated BV2 cells were fixed in 4% paraformaldehyde (PFA) for 15-20 min. The BV2 cells were then incubated with 1x PBS containing 0.1% Triton X-100 (PBST) for 20 min to increase membrane permeability. After block with 1% BSA for 1 h at room temperature, the primary antibody (1:100) was added and incubate overnight at 4 °C. Next day, the cells were washed three times with 1xPBS and incubated with fluorophore conjugated secondary antibody (1:500) for 2h. Finally, one drop of antifade mounting medium with DAPI (P0131, Beyotime) was added to stain the Nuclei. Then, sections were observed and analyzed under a Nikon A1 confocal microscope.\nas §2"}}}
{"substance": "APP/β-amyloid: APP/β-amyloid protein used as bait with lysates from WT and Aβ42 brain tissues", "values": [{"measurement": "binding to Dectin-1 (co-IP)", "setting": "Dectin-1 [1]", "value": "binds to the Dectin-1 protein in these lysates"}]}
{"substance": "Bio-Aβ42: biotin-labeled Amyloid beta peptide, obtained from GL Biochem", "values": [{"measurement": "Syk phosphorylation by Bio-Aβ42", "setting": "Syk", "value": "retained the Dectin-1 activating activity of Aβ42, as evidenced by the increased phosphorylation of Syk"}, {"measurement": "binding to Dectin-1 (pull-down/Co-IP)", "setting": "Dectin-1 [2]", "value": "Co-IP analysis further confirmed this result"}]}
{"substance": "FITC-Aβ42: Aβ42 linked with a FITC label", "values": [{"measurement": "phagocytosis and clearance of FITC-Aβ42, effect of Dectin-1 deficiency", "setting": "BV2 cells", "value": "did not affect the fluorescence intensity of Aβ"}]}
{"substance": "siD1: siRNA targeting Dectin-1 gene; sense 5’-GGAGAAAUCCAGAGGAGAATT-3’, antisense 5’-UUCUCCUCUGGAUUUCUCCTT-3’ (chemistry not given here)", "values": [{"measurement": "TNF-α and IL-1β release after Dectin-1 knockdown", "setting": "TNF-α and IL-1β", "value": "decreased the release of the inflammatory factors TNF-α and IL-1β"}, {"measurement": "mRNA levels of inflammatory genes Tnfa, Il1b, IL-6, Cox2, Inos", "setting": "[3]", "value": "significantly reversed"}, {"measurement": "Syk/NF-κB activity after Dectin-1 knockdown", "setting": "Syk/NF-κB", "value": "this increased activity of Syk/NF-κB was not seen in Dectin-1-deficient BV2 cells"}, {"measurement": "PC12 damage by medium of siD1-treated microglia", "setting": "PC12 cells", "value": "failed to damage PC12 cells"}, {"measurement": "p65 nuclear translocation after Dectin-1 knockdown", "setting": "NF-κB p65", "value": "remarkably inhibited Aβ42-induced p65 nuclear translocation"}]}
